Numbers after ± are expanded uncertainties.
Conditions: Crystal; visual observation

Normal melting temperature	SMILES
154.50 ± 0.4 °C	CC(C)NCC(O)COc1ccc(CC(N)=O)cc1 (configuration not stated) [2-(4-(2-hydroxy-3-(isopropylamino)propoxy)phenyl)acetamide]
164.80 ± 0.4 °C	CC(C)NCC(O)COc1cccc2ccccc12.Cl (configuration not stated) [propranolol hydrochloride]

— the NIST ThermoML archive (doi:10.1016/j.jct.2012.05.021)
